The structures appear in SMILES notation.

One experiment addresses T1, MGL (Rattus norvegicus, UniProt Q8R431).
T1 construct: one g rat brain was homogenized; from tissue; host or cells: rat brain homogenate
T1 sequence (Q8R431 1-303): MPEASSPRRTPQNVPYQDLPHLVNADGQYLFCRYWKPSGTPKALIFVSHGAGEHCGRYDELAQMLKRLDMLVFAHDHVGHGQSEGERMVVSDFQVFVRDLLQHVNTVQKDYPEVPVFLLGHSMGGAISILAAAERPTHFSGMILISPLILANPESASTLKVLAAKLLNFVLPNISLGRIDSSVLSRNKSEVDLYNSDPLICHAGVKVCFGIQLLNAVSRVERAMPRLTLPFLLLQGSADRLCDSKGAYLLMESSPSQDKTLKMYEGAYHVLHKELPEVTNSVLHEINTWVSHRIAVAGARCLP
In words: 2-AG accumulation assay in rat brain homogenate. The format is biochemical. The note with it: compound @1 μM, read-out: Rat Brain 2AG % VehCntrl (%) @1 μM. A digest of the protocol: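 Inhibition of rat MGL was assessed by measuring 2-AG build-up in brain homogenate. After a 15-min preincubation at 37° C., 10 mM CaCl2 was added and the 5 mL reaction ran 15 min more at 37° C. It was quenched with 6 mL 2:1 chloroform/methanol, extracted 2-AG was measured by HPLC/MS, and accumulation with compound was expressed as a percentage of vehicle.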

The test system of experiment [1] is CFA-induced paw radiant heat hypersensitivity. Description: CFA-induced paw radiant heat hypersensitivity. The format is in vivo. The note with it: rat; 30 mg/kg, p.o.; last time point 300 min; group mean values, maximum % reversal at any time point. The procedure: Each rat was placed in a test chamber on a warm glass surface and allowed to acclimate for approximately 10 min. A radiant thermal stimulus (beam of light) was focused through the glass onto the plantar surface of each hind paw in turn. The thermal stimulus was automatically shut off by a photoelectric relay when the paw was moved or when the cut-off time was reached (20 sec for radiant heat at ˜5 amps). An initial (baseline) response latency to the thermal stimulus was recorded for each animal prior to the injection of complete Freund's adjuvant (CFA). Twenty-four hours following intraplantar CFA injection, the response latency of the animal to the thermal stimulus was re-evaluated and compared to the animal's baseline response time. […] Post-compound treatment withdrawal latency was assessed at fixed time intervals, typically 30, 60, 120, 180, and 300 min.
The percent reversal (% R) of hypersensitivity was calculated in one of two different ways: 1) using group mean values or 2) using individual animal values. […]
Method 1. For all compounds, the % R of hypersensitivity was calculated using the mean value for groups of animals at each time point according to the following formula: % reversal=[(group treatment response−group CFA response)/(group baseline response−group CFA response)]×100 Results are given for the maximum % reversal observed for each compound at any time point tested. […]

Regarding `Cc1c(C(=O)N2CC(C3CCN(C(=O)c4nccs4)CC3)C2)sc2cc(C(F)(F)F)ccc12` [Cpd 20, 4-(1-{[3-Methyl-6-(trifluoromethyl)-1-benzothiophen-2-yl]carbonyl}azetidin-3-yl)-1-(1,3-thiazol-2-ylcarbonyl)piperidine], at MGL, the 2-AG accumulation, percent of vehicle control at 1 µM is 728%. For the same molecule, in experiment [1], the “Method 1: peak % reversal” value is recorded as −6.7%.
The corresponding values for `O=C(c1nccs1)N1CCC(C2CN(C(=O)c3sc4cc(C(F)(F)F)ccc4c3Cl)C2)CC1` [Cpd 29, 4-(1-{[3-Chloro-6-(trifluoromethyl)-1-benzothiophen-2-yl]carbonyl}azetidin-3-yl)-1-(1,3-thiazol-2-ylcarbonyl)piperidine] are 800% and 17.9%.

The values above are taken from US8513423B2 (Janssen Pharmaceutica, NV, priority 2010, dated 2013).
